From publication PMC10796410 (Cancer Chemotherapy and Pharmacology, 2023)
Where “and” joins values, the source holds several entries; their conditions need not be identical. Identical values can stand only once. Like-named read-outs stand apart in the source and are kept apart here.

How the values were obtained:
[1] = Plasma pharmacokinetics of metformin in rats after a single oral dose, alone or with olaparib (HPLC-UV, non-compartmental); type: in vivo, Wistar rats; conditions: for Cmax / k el: po; for Cmax / k el / Cl/F / ka / t0.5: rat plasma, n = 8, mean ± SD
Method: Adult male Wistar rats (weight 380–530 g) were used in the study. The animals were maintained under standard breeding conditions with a 12/12 h light–dark cycle (lights on at 06.00, lights off at 18.00) at constant room temperature (23 ± 2 °C), relative humidity of 55 ± 10% and given ad libitum access to food and water. The animals were allowed to acclimatize for a week before the beginning of the experiments. The rats were divided into three groups. […] The solution for oral metformin administration was prepared in saline at a single dose of 100 mg/kg [15]. Drugs were orally administered to rats by gavage between 7:00 a.m. and 8:00 a.m. Before administration (0 h) and at different time intervals after the administration, i.e., 0.085, 0.5, 1, 2, 4, 6, 8, 10, and 24 h [16], blood was collected from the tail vein of each rat into 1.5-ml heparinized Eppendorf (EP) tubes. The blood samples were centrifuged at 5000 rpm for 10 min, and the plasma was transferred to new centrifuge tubes and then stored at – 80 °C.
High-performance liquid chromatography (HPLC) with ultraviolet (UV) detection (HPLC Waters 2695 Separations Module with autosampler, Waters 2487 Dual Absorbance Detector) [17] after a liquid–liquid extraction with a mixture of 1-butanol:n-heptane (50:50, v/v) was applied to measure the concentrations of metformin in the rats’ plasma. An analytical Symmetry® C8 column (250 × 4.6 mm, 5.0 μm; Waters Corporation, Milford, MA, USA) and a mobile phase consisting of 0.1 M ammonium formate solution, pH 6.3 with an isocratic flow rate of 1.0 ml/min were used. The volume of each injection was 20 µl, and the retention times for metformin and internal standard (acetaminophen) were 3.5 and 11.2 min, respectively.
The maximum plasma concentration (Cmax) and the time to reach the Cmax (tmax) were obtained directly from the measured values. All of the above-mentioned parameters underwent statistical analysis.

[2] = test system: epithelial ovarian cancer cell lines; conditions: drugs given separately or co-administered; cited from earlier work
[3] = male, Wistar, rat, plasma, 100 mg/kg, IIMET: metformin 100 mg/kg b.w. oral single dose alone
[4] = male, Wistar, rat, plasma, 100 mg/kg, IMET+OLA: metformin 100 mg/kg b.w. + olaparib 100 mg/kg b.w. oral single dose
[5] = metformin, rats, with olaparib / alone
[6] = IIMET: metformin 100 mg/kg b.w. oral single dose alone
[7] = IMET+OLA: metformin 100 mg/kg b.w. + olaparib 100 mg/kg b.w. oral single dose
[8] = rats, co-administered with olaparib vs. metformin alone
[9] = rats, concomitant olaparib and metformin

CN(C)C(=N)N=C(N)N [metformin, Metformin]
concentration at 0.083 h ([1]; male, Wistar, rat, plasma, oral, 100 mg/kg, t 0.083 h, IIMET (metformin alone), group mean, read-out: Cmet, S (group mean)): 146 ng/mL
concentration at 1 h ([1]; male, Wistar, rat, plasma, oral, 100 mg/kg, t 1 h, IIMET (metformin alone), group mean, read-out: Cmet, S (group mean)): 397 ng/mL
concentration at 2 h ([1]; male, Wistar, rat, plasma, oral, 100 mg/kg, t 2 h, IIMET (metformin alone), group mean, read-out: Cmet, S (group mean)): 285 ng/mL
concentration at 6 h ([1]; male, Wistar, rat, plasma, oral, 100 mg/kg, t 6 h, IIMET (metformin alone), group mean, read-out: Cmet, S (group mean)): 156 ng/mL
concentration at 8 h ([1]; male, Wistar, rat, plasma, oral, 100 mg/kg, t 8 h, IIMET (metformin alone), group mean, read-out: Cmet, S (group mean)): 163 ng/mL
concentration at 10 h ([1]; male, Wistar, rat, plasma, oral, 100 mg/kg, t 10 h, IIMET (metformin alone), group mean, read-out: Cmet, S (group mean)): 133 ng/mL
concentration at 24 h ([1]; male, Wistar, rat, plasma, oral, 100 mg/kg, t 24 h, IIMET (metformin alone), group mean, read-out: Cmet, S (group mean)): 112 ng/mL
concentration at 0.083 h ([1]; male, Wistar, rat, plasma, oral, t 0.083 h, IMET+OLA (metformin and olaparib), group mean, read-out: Cmet, S (group mean)): 140 ng/mL
concentration at 0.5 h ([1]; male, Wistar, rat, plasma, oral, t 0.5 h, IMET+OLA (metformin and olaparib), group mean, read-out: Cmet, S (group mean)): 590 ng/mL
concentration at 1 h ([1]; male, Wistar, rat, plasma, oral, t 1 h, IMET+OLA (metformin and olaparib), group mean, read-out: Cmet, S (group mean)): 968 ng/mL
concentration at 2 h ([1]; male, Wistar, rat, plasma, oral, t 2 h, IMET+OLA (metformin and olaparib), group mean, read-out: Cmet, S (group mean)): 858 ng/mL
concentration at 4 h ([1]; male, Wistar, rat, plasma, oral, t 4 h, IMET+OLA (metformin and olaparib), group mean, read-out: Cmet, S (group mean)): 734 ng/mL
concentration at 6 h ([1]; male, Wistar, rat, plasma, oral, t 6 h, IMET+OLA (metformin and olaparib), group mean, read-out: Cmet, S (group mean)): 626 ng/mL
concentration at 10 h ([1]; male, Wistar, rat, plasma, oral, t 10 h, IMET+OLA (metformin and olaparib), group mean, read-out: Cmet, S (group mean)): 334 ng/mL
concentration at 24 h ([1]; male, Wistar, rat, plasma, oral, t 24 h, IMET+OLA (metformin and olaparib), group mean, read-out: Cmet, S (group mean)): 182 ng/mL
Cmax [1, 3]: 450 ± 290 ng/mL
k el [1, 3]: 8.89e-06 s⁻¹
Cmax [1, 4]: 1250 ± 800 ng/mL
k el [1, 4]: 1.5e-05 s⁻¹
IMET+OLA/IIMET ratio for AUC0-t [1, 5]: 2.59
IMET+OLA/IIMET ratio for AUC0→∞ [1, 5]: 1.74
IMET+OLA/IIMET ratio for Cmax [1, 5]: 2.78
Cl/F [1, 6]: 6.31 ± 1.48 l/h and 6.31 ± 1.48 (23.5) l/h
ka [1, 6]: 0.41 ± 0.25 (62.4) h^−1
t0.5 [1, 6]: 26.54 ± 14.52 (54.7) h
Cl/F [1, 7]: 3.57 ± 1.26 l/h and 3.57 ± 1.26 (35.34) l/h
ka [1, 7]: 0.59 ± 0.17 (29.7) h^−1
t0.5 [1, 7]: 14.95 ± 6.04 (40.4) h
decrease of metformin Cl/F in the presence of olaparib [1, 8]: 43.4%
decrease of metformin Vd/F in the presence of olaparib [1, 8]: 65.1%
increase of metformin AUC0-t when co-administered with olaparib [1, 8]: 159.8%
increase of metformin AUC0-∞ when co-administered with olaparib [1, 8]: 74.1%
increase of metformin Cmax in the presence of olaparib [1, 8]: 177.8%
increase of metformin AUC on concomitant olaparib [1, 9]: 2.6 times
increase of metformin Cmax on concomitant olaparib [1, 9]: 2.8 times
Cmet ([1]; t 0.083 h, IIMET (metformin alone), individual rats 17-24): 0.139 µg/mL and 0.07 µg/mL and 0.274 µg/mL and 0.12 µg/mL and 0.149 µg/mL and 0.135 µg/mL and 0.136 µg/mL and 0.145 µg/mL
Cmet ([1]; t 0.5 h, IIMET (metformin alone), individual rats 17-24): 0.153 µg/mL and 0.15 µg/mL and 0.313 µg/mL and 0.434 µg/mL and 0.58 µg/mL and 0.179 µg/mL and 0.143 µg/mL and 0.118 µg/mL
Cmet ([1]; t 0.5 h, IMET+OLA (metformin and olaparib), individual rats 9-16): 0.305 µg/mL and 0.586 µg/mL and 0.526 µg/mL and 1.222 µg/mL and 0.663 µg/mL and 0.324 µg/mL and 0.506 µg/mL
Cmet ([1]; t 1 h, IIMET (metformin alone), individual rats 17-24): 0.174 µg/mL and 0.18 µg/mL and 1.014 µg/mL and 0.544 µg/mL and 0.499 µg/mL and 0.32 µg/mL and 0.159 µg/mL and 0.287 µg/mL
Cmet ([1]; t 1 h, IMET+OLA (metformin and olaparib), individual rats 9-16): 0.543 µg/mL and 0.726 µg/mL and 0.856 µg/mL and 1.358 µg/mL and 0.97 µg/mL and 2.359 µg/mL and 0.185 µg/mL and 0.747 µg/mL
Cmet ([1]; t 2 h, IIMET (metformin alone), individual rats 17-24): 0.23 µg/mL and 0.17 µg/mL and 0.418 µg/mL and 0.681 µg/mL and 0.209 µg/mL and 0.126 µg/mL and 0.165 µg/mL and 0.28 µg/mL
Cmet ([1]; t 2 h, IMET+OLA (metformin and olaparib), individual rats 9-16): 0.528 µg/mL and 0.55 µg/mL and 1.159 µg/mL and 2.443 µg/mL and 1.095 µg/mL and 0.402 µg/mL and 0.242 µg/mL and 0.446 µg/mL
Cmet ([1]; t 4 h, IIMET (metformin alone), individual rats 17-24): 0.113 µg/mL and 0.13 µg/mL and 0.27 µg/mL and 0.646 µg/mL and 0.162 µg/mL
Cmet ([1]; t 4 h, IMET+OLA (metformin and olaparib), individual rats 9-16): 0.578 µg/mL and 0.585 µg/mL and 1.642 µg/mL and 1.111 µg/mL and 0.694 µg/mL and 0.502 µg/mL and 0.361 µg/mL and 0.396 µg/mL
Cmet ([1]; t 6 h, IMET+OLA (metformin and olaparib), individual rats 9-16): 0.469 µg/mL and 0.284 µg/mL and 1.584 µg/mL and 1.082 µg/mL and 0.494 µg/mL and 0.321 µg/mL and 0.41 µg/mL and 0.368 µg/mL
Cmet ([1]; t 8 h, IMET+OLA (metformin and olaparib), individual rats 9-16): 0.57 µg/mL and 0.234 µg/mL and 1.165 µg/mL and 0.793 µg/mL and 0.485 µg/mL and 0.275 µg/mL and 0.247 µg/mL and 0.287 µg/mL
Cmet ([1]; t 10 h, IMET+OLA (metformin and olaparib), individual rats 9-16): 0.281 ug/ml and 0.155 ug/ml and 0.738 ug/ml and 0.33 ug/ml and 0.444 ug/ml and 0.268 ug/ml (2×) and 0.186 ug/ml
Cmet ([1]; t 24 h, IMET+OLA (metformin and olaparib), individual rats 9-16): 0.133 µg/mL and 0.13 µg/mL and 0.334 µg/mL and 0.18 µg/mL and 0.236 µg/mL and 0.141 µg/mL and 0.117 µg/mL and 0.187 µg/mL
percentage of late apoptotic cells [2]: 8.2%
